# In patent US5510340A, “Antihypercholesterolemic compounds and related pharmaceutical compositions and methods of use” (SRI International, priority 1992, dated 1996):
# What was measured:
# Cholesterol Biosynthesis = test: In Vivo Cholesterol Biosynthesis Inhibition in Rats with Oral Administration of Test Compounds (compound 13, gavage); set-up: species or system Male Sprague-Dawley rats; conditions: rat plasma, 7 days; for 14C-Acetate Incorporation / Cholesterol Levels, HDL / 14C-Acetate Incorporation, Inhibition: gavage; for 14C-Acetate Incorporation: control 1200 ± 95; for Cholesterol Levels, HDL / Cholesterol Levels, Total: mean ± S.E.; for Cholesterol Levels, HDL: control 32 ± 2.1; for 14C-Acetate Incorporation, Inhibition: vs control; for Cholesterol Levels, Total: three daily doses via gavage, control 77.6 ± 2.3
# Protocol: (b.) In Vivo Cholesterol Biosynthesis Inhibition in Rats with Oral Administration of Test Compounds:
# Male Sprague-Dawley rats weighing 120 to 150 g were used. The animals were placed on a cholesterol-free diet immediately upon arrival and housed in a room with a reverse light cycle. One week after they had adapted to the light cycle, the experiment was begun by gavaging the animals three times daily with various amounts of test compound 13 suspended in 1.0 mL of saline. The control group received 1.0 mL of saline alone. On the seventh day of the experiment, sodium 1-^14 C! acetate (20 μCi/rat) was injected intraperitoneally 30 min after the oral administration (gavage) of test compounds and 2 h before the mid-dark point in the diurnal cycle; 4 h after the ^14 C-acetate injection, the animals were killed and blood samples were collected after decapitation. Plasma was obtained by centrifuging blood in an EDTA-treated centrifuge tube at 3000 rpm for 10 min. Cholesterol synthesis was measured by determining the level of ^14 C-labeled nonsaponifiable lipid present in 1.0 mL of plasma; 1.0 mL of plasma was first mixed with 1.0 mL of saline, followed by 5.0 mL of 10% KOH in absolute ethanol. Samples were saponified at 75° C. for 1 h. After cooling, 44,000 dpm, 0.5 nmol of 1,2-^3 H! cholesterol was added to each sample as an internal standard for calculating recovery through the extraction procedure. Samples were extracted once with 5 mL of petroleum ether, and the organic phase was backwashed with 5 mL of saline. The extracts were dried on a nitrogen evaporator, and the residue was reconstituted into 0.5 mL of CHCl3 -MeOH (2:1). The 0.5-mL reconstituted samples were transferred into counting vials containing 2 mL of ethanol, and both ^3 H and ^14 C were counted in 10 mL of scintillation fluid. The ^3 H-cholesterol internal standard recovery value from each sample was used to correct each sample to 100% recovery of ^14 C-cholesterol. The total cholesterol level and HDL in each plasma sample was also measured. The comparison between test groups and the control group was evaluated for both cholesterol levels and ^14 C-acetate incorporation.
# [1] = test system: Cholesterol Levels in Plasma of Rats; test: Assay for Lowering Cholesterol Levels in Rats Fed Drug-Containing Food Ad Libitum; type: in vivo, Male Sprague-Dawley rats; conditions: rat plasma, mean ± S.E.
# Protocol: (d.) Assay for Lowering Cholesterol Levels in Rats Fed Drug-Containing Food Ad Libitum:
# Male Sprague-Dawley rats weighing 150 to 200 g were used for this experiment. The animals were divided into groups of six rats each. All groups were kept on a cholesterol-free diet throughout the entire experiment. This diet was prepared by adding the test compound in small portions (usually 100 mg) to 100 g of choleserol-free diet in a 1-liter glass separatory funnel with a stopper. The diet was thoroughly mixed after each addition of the test compound. The resulting diet was kept in a refrigerator at all times. Before feeding, the diet was allowed to warm to room temperature. The animals were housed individually in metabolic cages. All test groups were allowed free access to the cholesterol-free diet containing the proper doses of the test compound. A pair-fed group was assigned to each test group and allowed free access to the cholesterol-free diet only in the amount consumed by its corresponding counterpart on the previous day. The control group was allowed free access to the cholesterol-free diet with no restriction. The food consumption and body weights of all groups were recorded daily. Blood samples were taken from all groups on day 0 and every third or fourth day throughout the entire experiment. Plasma was obtained by drawing blood into EDTA-treated centrifuge tubes and centrifuging at 3000 rpm for 10 min. The total cholesterol level and HDL in each plasma sample were determined using a Gemini autoanalyzer.
# [2] = Day 0, cholesterol-free diet containing 0.2% inhibitor, control 29 ± 0.9
# [3] = Day 0, cholesterol-free diet containing 0.2% inhibitor, control 70 ± 1
# [4] = Day 4, cholesterol-free diet containing 0.2% inhibitor, control 28 ± 2
# [5] = Day 4, cholesterol-free diet containing 0.2% inhibitor, control 77 ± 2
# [6] = Day 7, cholesterol-free diet containing 0.2% inhibitor, control 26 ± 2
# [7] = Day 7, diet containing 0.2% inhibitor, control 76 ± 4, ^b significantly lower than Day 0 (P < 0.001), pair-fed (P < 0.005) and control (P < 0.001), ^c significantly lower than pair-fed (P < 0.02)
# [8] = Day 10, cholesterol-free diet containing 0.2% inhibitor, control 32 ± 1.5
# [9] = Day 10, cholesterol-free diet containing 0.2% inhibitor, control 81 ± 3
structure (smiles),measurement,setting,value
"CC(C)CCC[C@@H](C)[C@H]1Cc2nnc3c4c2[C@]1(C)CC[C@@H]4[C@@]1(C)CC[C@H](O)C[C@@H]1C3 [Compound 13, pyridazino 3',4',5',6':7,8,14,15!5α-cholestan-3β-ol]",14C-Acetate Incorporation,Cholesterol Biosynthesis; 0.16 mg/rat/day,696 ± 107 cpm/ml
same,"Cholesterol Levels, HDL",Cholesterol Biosynthesis; 0.16 mg/rat/day,44.0 ± 10.6 Mg/100 ml
same,"14C-Acetate Incorporation, Inhibition",Cholesterol Biosynthesis; 0.16 mg/rat/day,42%
same,"Cholesterol Levels, Total",Cholesterol Biosynthesis; 0.16 mg/rat/day,66.8 ± 3.4 Mg/100 ml
same,14C-Acetate Incorporation,Cholesterol Biosynthesis; 0.33 mg/rat/day,510 ± 122 cpm/ml
same,"Cholesterol Levels, HDL",Cholesterol Biosynthesis; 0.33 mg/rat/day,27.6 ± 3.5 Mg/100 ml
same,"14C-Acetate Incorporation, Inhibition",Cholesterol Biosynthesis; 0.33 mg/rat/day,58%
same,"Cholesterol Levels, Total",Cholesterol Biosynthesis; 0.33 mg/rat/day,62.6 ± 2.4 Mg/100 ml
same,14C-Acetate Incorporation,Cholesterol Biosynthesis; 1.0 mg/rat/day,385 ± 47 cpm/ml
same,"Cholesterol Levels, HDL",Cholesterol Biosynthesis; 1.0 mg/rat/day,28.6 ± 1.9 Mg/100 ml
same,"14C-Acetate Incorporation, Inhibition",Cholesterol Biosynthesis; 1.0 mg/rat/day,68%
same,"Cholesterol Levels, Total",Cholesterol Biosynthesis; 1.0 mg/rat/day,61.4 ± 3.0 Mg/100 ml
same,14C-Acetate Incorporation,Cholesterol Biosynthesis; 3.0 mg/rat/day,383 ± 38 cpm/ml
same,"Cholesterol Levels, HDL",Cholesterol Biosynthesis; 3.0 mg/rat/day,28.8 ± 4.3 Mg/100 ml
same,"14C-Acetate Incorporation, Inhibition",Cholesterol Biosynthesis; 3.0 mg/rat/day,69%
same,"Cholesterol Levels, Total",Cholesterol Biosynthesis; 3.0 mg/rat/day,60.8 ± 0.9 Mg/100 ml
same,14C-Acetate Incorporation,Cholesterol Biosynthesis; 7.5 mg/rat/day,340 ± 50 cpm/ml
same,"Cholesterol Levels, HDL",Cholesterol Biosynthesis; 7.5 mg/rat/day,14.3 ± 0.33 Mg/100 ml
same,"14C-Acetate Incorporation, Inhibition",Cholesterol Biosynthesis; 7.5 mg/rat/day,72%
same,"Cholesterol Levels, Total",Cholesterol Biosynthesis; 7.5 mg/rat/day,44.0 ± 1.0 Mg/100 ml
same,"Cholesterol levels, LDL",[1]; [2],34 ± 1.8 mg/100 mL
same,"Cholesterol Levels, Total",[1]; [3],74 ± 1 mg/100 mL
same,"Cholesterol levels, LDL",[1]; [4],28 ± 2 mg/100 mL
same,"Cholesterol Levels, Total",[1]; [5],62 ± 2 mg/100 mL
same,"Cholesterol levels, LDL",[1]; [6],17 ± 3 mg/100 mL
same,"Cholesterol Levels, Total",[1]; [7],46 ± 3 mg/100 mL
same,"Cholesterol levels, LDL",[1]; [8],29 ± 2 mg/100 mL
same,"Cholesterol Levels, Total",[1]; [9],47 ± 5 mg/100 mL
"CC(C)CCC[C@@H](C)[C@H]1CC(=O)C2=C3CC[C@H]4C[C@@H](O)CC[C@]4(C)[C@H]3CC[C@@]21C [Compound 27, 3β-Hydroxy-5α-cholest-8(14)-ene-15-one, reference compound]","Cholesterol levels, LDL",[1]; [2],34 ± 2 mg/100 mL
same,"Cholesterol Levels, Total",[1]; [3],74 ± 3 mg/100 mL
same,"Cholesterol levels, LDL",[1]; [4],31 ± 2 mg/100 mL
same,"Cholesterol Levels, Total",[1]; [5],69 ± 2 mg/100 mL
same,"Cholesterol levels, LDL",[1]; [6],23 ± 2 mg/100 mL
same,"Cholesterol Levels, Total",[1]; [7],48 ± 4 mg/100 mL
same,"Cholesterol levels, LDL",[1]; [8],41 ± 1.5 mg/100 mL
same,"Cholesterol Levels, Total",[1]; [9],66 ± 2 mg/100 mL
